# Tests used:
# [1] = target: T1, human B1R receptor (hB1R) (Homo sapiens, UniProt P46663); assay: FLIPR Ca2+ assay on hB1R-transfected CHO K1 cells, antagonistic action; assay type: cell-based; settings: agonist Lys-Des-Arg9-bradykinin 0.5 nM, % of maximum achievable inhibition; for inhibition at 10 µM: CHO-K1, 10 μM test substance, read-out: hB1R [10 μM] % inhibition
# T1 construct: host or cells: CHO K1 cells
# T1 sequence (P46663 1-353): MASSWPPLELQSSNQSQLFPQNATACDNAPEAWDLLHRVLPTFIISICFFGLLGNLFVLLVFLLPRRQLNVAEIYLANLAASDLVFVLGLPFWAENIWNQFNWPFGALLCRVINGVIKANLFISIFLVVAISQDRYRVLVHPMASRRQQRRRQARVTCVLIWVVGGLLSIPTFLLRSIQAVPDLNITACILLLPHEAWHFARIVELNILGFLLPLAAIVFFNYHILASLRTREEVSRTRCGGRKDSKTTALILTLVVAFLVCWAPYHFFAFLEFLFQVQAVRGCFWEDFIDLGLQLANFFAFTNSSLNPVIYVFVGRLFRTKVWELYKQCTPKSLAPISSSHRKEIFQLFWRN
# [2] = target: T2, B1R receptor of the rat (rB1R) (Rattus norvegicus, UniProt P97583); assay: FLIPR Ca2+ assay on rB1R-transfected CHO K1 cells, antagonistic action; assay type: cell-based; settings: agonist Des-Arg9-bradykinin 100 nM, % of maximum achievable inhibition; for inhibition at 10 µM: CHO-K1, 10 μM test substance, read-out: rB1R [10 μM] % inhibition
# T2 construct: host or cells: CHO K1 cells
# T2 sequence (P97583 1-337): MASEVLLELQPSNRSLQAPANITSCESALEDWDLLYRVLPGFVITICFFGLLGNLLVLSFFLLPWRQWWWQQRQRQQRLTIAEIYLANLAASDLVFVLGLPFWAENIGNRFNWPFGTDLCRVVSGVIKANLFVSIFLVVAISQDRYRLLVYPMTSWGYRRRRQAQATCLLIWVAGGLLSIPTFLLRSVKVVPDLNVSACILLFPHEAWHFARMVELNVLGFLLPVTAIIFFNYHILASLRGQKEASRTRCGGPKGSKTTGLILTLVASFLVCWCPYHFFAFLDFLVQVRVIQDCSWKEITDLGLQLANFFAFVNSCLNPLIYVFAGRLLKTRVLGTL
SMILES,inhibition at 10 µM [1] [%],inhibition at 10 µM [2] [%],hB1R [10 μM] % inhibition ([1]; 10 μM test substance) [%],rB1R [10 μM] % inhibition ([2]; 10 μM test substance) [%]
"COc1cc(C)c(S(=O)(=O)N2CCCCC2COCC(=O)N(C)CC2CCC(c3ccccc3)(N3CCCC3)CC2)c(C)c1 (centres unmarked) [Compound 66, 2-((1-(4-methoxy-2,6-dimethylphenylsulfonyl)piperidin-2-yl)methoxy)-N-methyl-N-((4-phenyl-4-(pyrrolidin-1-yl)cyclohexyl)methyl)acetamide]",102,100,–,–
"CN(CC1CCC(CCc2ccccc2)(N2CCCC2)CC1)C(=O)CC1CCCCN1S(=O)(=O)c1cccc(C(F)(F)F)c1 (centres unmarked) [Compound 38, N-methyl-N-((4-phenethyl-4-(pyrrolidin-1-yl)cyclohexyl)methyl)-2-(1-(3-(trifluoromethyl)phenylsulfonyl)piperidin-2-yl)acetamide]",98,101,–,–
"O=C(COCC1CCc2ccccc2N1S(=O)(=O)c1ccc(Cl)c(Cl)c1)N1CCC(c2ccccc2)(N2CCN(c3ccncc3)CC2)CC1 (centres unmarked) [Compound 100, 2-((1-(3,4-dichlorophenylsulfonyl)-1,2,3,4-tetrahydroquinolin-2-yl)methoxy)-1-(4-phenyl-4-(4-(pyridin-4-yl)piperazin-1-yl)piperidin-1-yl)ethanone]",51,88,–,–
"CN1CCN(C2(c3cccc(F)c3)CCN(C(=O)CCCC3CCCCN3S(=O)(=O)c3ccc4ccccc4c3)CC2)CC1 (centres unmarked) [Compound 216, 1-(4-(3-Fluorophenyl)-4-(4-methylpiperazin-1-yl)piperidin-1-yl)-4-(1-(naphthalen-2-ylsulfonyl)piperidin-2-yl)butan-1-one]",100,95,–,–
"COc1cc(C)c(S(=O)(=O)N2CCCCC2COCC(=O)N2CCC(c3cccc(F)c3)(N3CCN(C)CC3)CC2)c(C)c1 (centres unmarked) [Compound 67, 1-(4-(3-fluorophenyl)-4-(4-methylpiperazin-1-yl)piperidin-1-yl)-2-((1-(4-methoxy-2,6-dimethylphenylsulfonyl)piperidin-2-yl)methoxy)ethanone]",–,–,101,100
"COc1cc(C)c(S(=O)(=O)N(C)CCOCC(=O)N(C)CC2CCC(c3ccccc3)(N3CCCC3)CC2)c(C)c1 (centres unmarked) [Compound 35, 2-(2-(4-methoxy-N,2,6-trimethylphenylsulfonamido)ethoxy)-N-methyl-N-((4-phenyl-4-(pyrrolidin-1-yl)cyclohexyl)methyl)acetamide]",102,101,–,–
"CN(C)C1(c2ccccc2)CCC(NC(=O)CC2c3ccccc3CCN2S(=O)(=O)c2ccc(Cl)c(Cl)c2)CC1 (centres unmarked) [Compound 26, 2-(2-(3,4-dichlorophenylsulfonyl)-1,2,3,4-tetrahydroisoquinolin-1-yl)-N-(4-(dimethylamino)-4-phenylcyclohexyl)acetamide]",84,56,–,–
"COc1cc(C)c(S(=O)(=O)N2CCCCC2COCC(=O)NC2CCC(c3ccccc3)(N3CCOCC3)CC2)c(C)c1 (centres unmarked) [Compound 158, 2-((1-(4-methoxy-2,6-dimethylphenylsulfonyl)piperidin-2-yl)methoxy)-N-(4-morpholino-4-phenylcyclohexyl)acetamide]",87,99,–,–
"COc1cc(C)c(S(=O)(=O)N2CCCCC2COCC(=O)N(C)CCC2CCC(CCc3ccccc3)(N3CCCC3)CC2)c(C)c1 (centres unmarked) [Compound 46, 2-((1-(4-methoxy-2,6-dimethylphenylsulfonyl)piperidin-2-yl)methoxy)-N-methyl-N-(2-(4-phenethyl-4-(pyrrolidin-1-yl)cyclohexyl)ethyl)acetamide]",104,100,–,–
"COc1cc(C)c(S(=O)(=O)N2CCCCC2COCC(=O)NC2CCC(c3ccccc3)(N3CCCC3)CC2)c(C)c1 (centres unmarked) [Compound 147, 2-((1-(4-methoxy-2,6-dimethylphenylsulfonyl)piperidin-2-yl)methoxy)-N-(4-phenyl-4-(pyrrolidin-1-yl)cyclohexyl)acetamide]",94,108,–,–
"CN(CCC1CCC(CCc2ccccc2)(N2CCCC2)CC1)C(=O)CC(NS(=O)(=O)c1ccc2ccccc2c1)c1ccccc1 (centres unmarked) [Compound 114, N-methyl-3-(naphthalene-2-sulfonamido)-N-(2-(4-phenethyl-4-(pyrrolidin-1-yl)cyclohexyl)ethyl)-3-phenylpropanamide]",96,73,–,–
"COc1cc(C)c(S(=O)(=O)N(C)CCOCC(=O)NC2CCC(CCc3ccccc3)(N(C)C)CC2)c(C)c1C (centres unmarked) [Compound 24, N-(4-(dimethylamino)-4-phenethylcyclohexyl)-2-(2-(4-methoxy-N,2,3,6-tetramethylphenylsulfonamido)ethoxy)acetamide]",97,65,–,–
"COc1cc(C)c(S(=O)(=O)N(C)CCOCC(=O)N2CCC(c3ccc(F)cc3)(N3CCN(C)CC3)CC2)c(C)c1 [Compound 42, N-(2-(2-(4-(4-fluorophenyl)-4-(4-methylpiperazin-1-yl)piperidin-1-yl)-2-oxoethoxy)ethyl)-4-methoxy-N,2,6-trimethylbenzenesulfonamide]",105,101,–,–
"Cc1cc(S(=O)(=O)N2CCCCC2CCC(=O)N(C)CCC2CCC(CCc3ccccc3)(N3CCCC3)CC2)c(C)cc1Cl (centres unmarked) [Compound 131, 3-(1-(4-chloro-2,5-dimethylphenylsulfonyl)piperidin-2-yl)-N-methyl-N-(2-(4-phenethyl-4-(pyrrolidin-1-yl)cyclohexyl)ethyl)propanamide]",99,47,–,–
"O=C(CC1c2ccccc2CCN1S(=O)(=O)c1ccc(Cl)c(Cl)c1)NC1CCC(Cc2ccccc2)(N2CCCCC2)CC1 (centres unmarked) [Compound 15, N-(4-benzyl-4-(piperidin-1-yl)cyclohexyl)-2-(2-(3,4-dichlorophenylsulfonyl)-1,2,3,4-tetrahydroisoquinolin-1-yl)acetamide]",55,82,–,–
"CN(CCOCC(=O)NC1CCC(c2ccccc2)(N2CCCC2)CC1)S(=O)(=O)c1ccc(Cl)cc1Cl (centres unmarked) [Compound 179, 2-(2-(2,4-dichloro-N-methylphenylsulfonamido)ethoxy)-N-(4-phenyl-4-(pyrrolidin-1-yl)cyclohexyl)acetamide]",41,75,–,–
"CN(CCCC1CCC(CCc2ccccc2)(N2CCCC2)CC1)C(=O)CC(NS(=O)(=O)c1ccc2ccccc2c1)c1ccccc1 (centres unmarked) [Compound 79, N-methyl-3-(naphthalene-2-sulfonamido)-N-(3-(4-phenethyl-4-(pyrrolidin-1-yl)cyclohexyl)propyl)-3-phenylpropanamide]",102,99,–,–
"COc1cc(C)c(S(=O)(=O)N2CCCC(OCC(=O)NC3CCC(Cc4ccccc4)(N4CCOCC4)CC3)C2)c(C)c1 (centres unmarked) [Compound 190, N-(4-benzyl-4-morpholinocyclohexyl)-2-(1-(4-methoxy-2,6-dimethylphenylsulfonyl)piperidin-3-yloxy)acetamide]",90,57,–,–
"COc1cc(C)c(S(=O)(=O)N2CCCCC2COCC(=O)N(C)CC2CCC(CCc3ccccc3)(N3CCN(C)CC3)CC2)c(C)c1 (centres unmarked) [Compound 144, 2-((1-(4-methoxy-2,6-dimethylphenylsulfonyl)piperidin-2-yl)methoxy)-N-methyl-N-((4-(4-methylpiperazin-1-yl)-4-phenethylcyclohexyl)methyl)acetamide]",103,111,–,–
"COc1cc(C)c(S(=O)(=O)N2CCCCC2COCC(=O)N2CCC(c3cccc(F)c3)(N3CCN(C)CC3)CC2)c(C)c1 (centres unmarked) [Compound 211, 1-(4-(3-Fluorophenyl)-4-(4-methylpiperazin-1-yl)piperidin-1-yl)-2-((1-(4-methoxy-2,6-dimethylphenylsulfonyl)piperidin-2-yl)methoxy)ethanone]",100,101,–,–
"COc1cc(C)c(S(=O)(=O)N(C)CCOCC(=O)NC2CCC(c3ccccc3)(N3CCCCC3)CC2)c(C)c1 (centres unmarked) [Compound 11, 2-(2-(4-methoxy-N,2,6-trimethylphenylsulfonamido)ethoxy)-N-(4-phenyl-4-(piperidin-1-yl)cyclohexyl)acetamide]",100,90,–,–
"COc1cc(C)c(S(=O)(=O)N2CCCC2COCC(=O)NC2CCC(c3ccccc3)(N3CCOCC3)CC2)c(C)c1 (centres unmarked) [Compound 160, 2-((1-(4-methoxy-2,6-dimethylphenylsulfonyl)pyrrolidin-2-yl)methoxy)-N-(4-morpholino-4-phenylcyclohexyl)acetamide]",93,98,–,–

# Reference: US20090253669A1, “Substituted Sulfonamide Compounds” (GRUENENTHAL GmbH, priority 2008, published 2009)
